From PMC5563081, “Modulating Protein-Protein Interactions of the Mitotic Polo-like Kinases to Target Mutant KRAS” (Cell Chemical Biology, 2017) come the findings set out here.

Data set [1] addresses hERG ion channel (Homo sapiens, UniProt Q12809). Put plainly: hERG ion channel activity. In general terms: hERG is a cardiac potassium channel; its block is linked to QT prolongation.
Data set [2] is described as follows: Tolerability and body weight in the xenograft study. Type of data set: in vivo, mouse. Conditions: 50 mg/kg oral, mice; no adverse health observations or recorded weight loss. Here is the method: Tumours were established by sub-cutaneous implantation of 2 x 10^6 HCT116 cells suspended in 50% Matrigel into the flanks of a cohort of mice. When a sufficient number of mice had developed tumours of approximately 100mm3, they were randomly assigned to three groups: Vehicle, 50mg/kg Poloppin-II or 200mg/kg Poloppin-II, with 10 mice per group. Mice were treated orally according to their treatment group once every three days. Tumour volume was measured three times per week with calipers. Body weight was measured three times per week. In addition to mice assigned to tumour volume efficacy arm of the study, 16 mice with established HCT116 xenografts were assigned to either Vehicle or 200mg/kg oral dosing groups, with 8 mice per group. 24 hours after a single dose, mice were euthanised, tumours removed, snap frozen and 30-50microgram of lysates were analysed by Western blotting on 4-12% Bis-Tris acrylamide gels, and transferred using the Invitrogen iBlot dry system. Phospho-Histone H3 was detected using Abcam antibody ab5176, beta-actin with Sigma antibody a5316. […] HRP was visualised with ECL-Plus (GE Healthcare).

Data set [3] addresses T1, BUB1 (Homo sapiens, UniProt O43683).
T1 construct: purchased DiscoverX KINOMEscan
Put plainly: DiscoverX KINOMEscan. It counts as binding. The following applies: read-out: % Control. Here is the method:
(§1) A panel of 55 proteins (comprising 51 human kinases structurally or functionally related to the PLKs, plus the kinase catalytic domains of PLK1, PLK2, PLK3 and PLK4) were selected for testing by DiscoverX using the KINOMEscan assay platform. Compounds were supplied as 40x DMSO stocks and were tested at a final concentration of 50μM for Poloppin and 5μM for Poloppin-II. Binding interactions were reported as percentage of control where lower numbers indicate stronger binding. A cut-off of <35% was applied to report significant binding.

The target of data set [4] is T2, CSNK2A1 (Homo sapiens, UniProt P68400).
T2 construct: purchased DiscoverX KINOMEscan
T2 sequence (P68400 whole entry): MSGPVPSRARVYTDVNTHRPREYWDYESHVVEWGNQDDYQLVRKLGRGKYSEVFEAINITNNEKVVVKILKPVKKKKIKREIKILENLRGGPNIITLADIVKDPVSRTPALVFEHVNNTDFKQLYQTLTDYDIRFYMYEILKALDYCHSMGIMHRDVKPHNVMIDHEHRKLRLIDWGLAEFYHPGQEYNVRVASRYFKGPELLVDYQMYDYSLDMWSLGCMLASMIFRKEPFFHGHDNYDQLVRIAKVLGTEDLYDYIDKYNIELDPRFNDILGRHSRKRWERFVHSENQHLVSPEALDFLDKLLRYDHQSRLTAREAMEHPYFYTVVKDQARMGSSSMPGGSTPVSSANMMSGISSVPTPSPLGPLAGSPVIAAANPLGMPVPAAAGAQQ
Put plainly: DiscoverX KINOMEscan. It counts as binding. The following applies: read-out: % Control. Here is the method: as §1

The target in data set [5] is T3, CSNK2A2 (Homo sapiens, UniProt P19784).
T3 construct: purchased DiscoverX KINOMEscan
T3 sequence (P19784 whole entry): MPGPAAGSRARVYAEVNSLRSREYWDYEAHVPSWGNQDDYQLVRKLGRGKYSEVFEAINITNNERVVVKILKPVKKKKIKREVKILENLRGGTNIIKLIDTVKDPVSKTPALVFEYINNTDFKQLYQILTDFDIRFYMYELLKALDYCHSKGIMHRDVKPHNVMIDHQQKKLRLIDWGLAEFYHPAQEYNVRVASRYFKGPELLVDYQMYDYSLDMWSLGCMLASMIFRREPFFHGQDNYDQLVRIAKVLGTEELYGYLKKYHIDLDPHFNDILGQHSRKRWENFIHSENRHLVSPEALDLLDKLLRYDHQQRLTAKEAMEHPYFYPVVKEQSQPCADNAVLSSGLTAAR
Put plainly: DiscoverX KINOMEscan. Type of data set: binding. The following applies: read-out: % Control. On the procedure:
as §1

Data set [6] addresses T4, EIF2AK1 (Homo sapiens, UniProt Q9BQI3).
T4 construct: purchased DiscoverX KINOMEscan
Put plainly: DiscoverX KINOMEscan. Type of data set: binding. Conditions: read-out: % Control. On the procedure: as §1

For data set [7], the target named is T5, GAK (Homo sapiens, UniProt O14976).
T5 construct: purchased DiscoverX KINOMEscan
Put plainly: DiscoverX KINOMEscan. It counts as binding. Conditions: read-out: % Control. Here is the method:
as §1

Data set [8] concerns the target T6, NEK3 (Homo sapiens, UniProt P51956).
T6 construct: purchased DiscoverX KINOMEscan
Put plainly: DiscoverX KINOMEscan. Type of data set: binding. Conditions: read-out: % Control. On the procedure: as §1

Data set [9] addresses T7, NEK6 (Homo sapiens, UniProt Q9HC98).
T7 construct: purchased DiscoverX KINOMEscan
Put plainly: DiscoverX KINOMEscan. It counts as binding. Conditions: read-out: % Control. Here is the method: as §1

In data set [10] the target is T8, PLK2 kinase catalytic domain (Homo sapiens, UniProt Q9NYY3).
T8 construct: PLK2 kinase catalytic domain; purchased DiscoverX KINOMEscan
T8 sequence (Q9NYY3 82-334 limits assumed): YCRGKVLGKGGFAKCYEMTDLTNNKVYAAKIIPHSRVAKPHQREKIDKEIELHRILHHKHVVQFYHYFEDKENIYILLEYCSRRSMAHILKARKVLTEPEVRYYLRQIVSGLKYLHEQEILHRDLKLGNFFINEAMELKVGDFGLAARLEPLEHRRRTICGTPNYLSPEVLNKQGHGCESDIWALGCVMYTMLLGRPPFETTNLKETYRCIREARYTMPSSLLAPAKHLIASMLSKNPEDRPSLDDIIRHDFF
Put plainly: DiscoverX KINOMEscan. It counts as binding. The following applies: read-out: % Control. Here is the method: as §1

For data set [11], the target named is T9, ROCK2 (Homo sapiens, UniProt O75116).
T9 construct: purchased DiscoverX KINOMEscan
T9 sequence (O75116 whole entry): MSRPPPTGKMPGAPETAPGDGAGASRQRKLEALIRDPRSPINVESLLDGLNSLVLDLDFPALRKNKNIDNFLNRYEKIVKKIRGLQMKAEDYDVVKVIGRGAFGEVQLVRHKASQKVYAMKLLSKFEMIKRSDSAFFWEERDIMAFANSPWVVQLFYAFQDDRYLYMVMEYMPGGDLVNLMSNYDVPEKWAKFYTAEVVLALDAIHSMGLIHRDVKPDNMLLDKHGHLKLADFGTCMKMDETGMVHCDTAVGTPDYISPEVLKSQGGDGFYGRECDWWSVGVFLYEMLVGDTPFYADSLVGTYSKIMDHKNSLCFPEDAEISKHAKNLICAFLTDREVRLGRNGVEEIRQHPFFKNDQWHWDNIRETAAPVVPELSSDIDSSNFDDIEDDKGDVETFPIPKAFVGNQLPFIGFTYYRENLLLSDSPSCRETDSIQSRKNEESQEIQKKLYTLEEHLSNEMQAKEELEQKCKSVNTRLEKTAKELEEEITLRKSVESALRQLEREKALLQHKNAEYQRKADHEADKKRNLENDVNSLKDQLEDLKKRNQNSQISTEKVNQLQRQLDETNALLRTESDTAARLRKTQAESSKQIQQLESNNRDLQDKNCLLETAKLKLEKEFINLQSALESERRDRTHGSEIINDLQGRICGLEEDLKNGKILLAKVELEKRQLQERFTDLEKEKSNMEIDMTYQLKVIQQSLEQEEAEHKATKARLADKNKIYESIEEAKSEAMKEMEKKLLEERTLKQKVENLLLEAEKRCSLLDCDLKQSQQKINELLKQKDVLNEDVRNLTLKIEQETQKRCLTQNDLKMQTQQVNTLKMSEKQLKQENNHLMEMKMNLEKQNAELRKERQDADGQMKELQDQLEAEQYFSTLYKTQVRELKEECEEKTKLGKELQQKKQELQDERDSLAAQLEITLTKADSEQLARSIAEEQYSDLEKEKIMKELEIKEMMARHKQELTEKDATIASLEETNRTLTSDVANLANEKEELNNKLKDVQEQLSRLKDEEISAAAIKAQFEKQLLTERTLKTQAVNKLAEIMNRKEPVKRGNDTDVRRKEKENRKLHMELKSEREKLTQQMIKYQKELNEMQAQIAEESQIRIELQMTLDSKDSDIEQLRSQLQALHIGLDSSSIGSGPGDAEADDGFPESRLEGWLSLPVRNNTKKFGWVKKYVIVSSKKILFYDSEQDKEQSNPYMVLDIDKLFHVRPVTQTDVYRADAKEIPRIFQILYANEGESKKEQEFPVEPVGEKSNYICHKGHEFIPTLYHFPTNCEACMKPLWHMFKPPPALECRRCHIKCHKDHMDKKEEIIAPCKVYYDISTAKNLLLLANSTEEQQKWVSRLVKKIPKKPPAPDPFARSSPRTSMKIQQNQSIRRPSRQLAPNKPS
Put plainly: DiscoverX KINOMEscan. Conditions: read-out: % Control. Type of data set: binding. Here is the method: as §1

Data set [12] has as its target T10, WEE2 (Homo sapiens, UniProt P0C1S8).
T10 construct: purchased DiscoverX KINOMEscan
Put plainly: DiscoverX KINOMEscan. Type of data set: binding. Conditions: read-out: % Control. On the procedure: as §1

In data set [13] the target is T11, WNK1 (Homo sapiens, UniProt Q9H4A3).
T11 construct: purchased DiscoverX KINOMEscan
Put plainly: DiscoverX KINOMEscan. Conditions: read-out: % Control. Type of data set: binding. On the procedure: as §1

The subject of data set [14] is human cell lines. Put plainly: Dose-dependent mitotic arrest (Figure 1F). It counts as cell-based. Here is the method:
Cells were plated at 10 000/well in 96-well plates and incubated overnight. The following day compound stocks in DMSO were diluted in medium then added to cells with a maximum final DMSO concentration on cells of 0.2%. Cells were incubated with compound for 24 h then fixed in 3.7% formaldeyde. Cells were permeabilised with 0.1% Triton X-100 then incubated with anti-phospho-histone H3 (Ser10) antibody (Abcam ab5176). The cells were washed with PBS then incubated with AlexaFluor 488 labelled goat anti-rabbit IgG (Invitrogen A11034) in the presence of 4ug/ml Hoechst 33342 (Invitrogen H3570). Cells were washed in PBS then imaged on an Arrayscan VTi HCS instrument (Thermo Fisher) using the Target Activation V4 Bioapplication. A user-defined threshold was applied to identify mitotic cells based on the intensity of phospho-histone H3 staining.

The subject of data set [15] is HCT116 BI 2536-Res. Clones. Put plainly: Viability of BI 2536-resistant HCT116 clones. Type of data set: cell-based, human. On the procedure: Viability is represented as percentage survival normalised to DMSO control. […] PCR reactions were carried out using Amplitaq Gold polymerase (Applied Biosystems N8080241) with a 25-cycle programme. […] Prepared samples were submitted for next generation sequencing using MiSeq Nano run with Nextera XT library preparation. Sequencing and subsequent bioinformatics were performed by Cambridge Genomic Services (University Of Cambridge).

T7 sequence (Q9HC98 whole entry): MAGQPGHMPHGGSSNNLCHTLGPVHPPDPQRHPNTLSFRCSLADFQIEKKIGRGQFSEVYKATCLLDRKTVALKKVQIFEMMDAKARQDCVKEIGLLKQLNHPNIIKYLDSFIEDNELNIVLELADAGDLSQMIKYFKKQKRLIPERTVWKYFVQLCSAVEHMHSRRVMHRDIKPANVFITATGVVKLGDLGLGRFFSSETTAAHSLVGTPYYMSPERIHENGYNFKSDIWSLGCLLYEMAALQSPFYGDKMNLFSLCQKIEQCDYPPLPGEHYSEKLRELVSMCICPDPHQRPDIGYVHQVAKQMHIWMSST
T6 sequence (P51956 whole entry): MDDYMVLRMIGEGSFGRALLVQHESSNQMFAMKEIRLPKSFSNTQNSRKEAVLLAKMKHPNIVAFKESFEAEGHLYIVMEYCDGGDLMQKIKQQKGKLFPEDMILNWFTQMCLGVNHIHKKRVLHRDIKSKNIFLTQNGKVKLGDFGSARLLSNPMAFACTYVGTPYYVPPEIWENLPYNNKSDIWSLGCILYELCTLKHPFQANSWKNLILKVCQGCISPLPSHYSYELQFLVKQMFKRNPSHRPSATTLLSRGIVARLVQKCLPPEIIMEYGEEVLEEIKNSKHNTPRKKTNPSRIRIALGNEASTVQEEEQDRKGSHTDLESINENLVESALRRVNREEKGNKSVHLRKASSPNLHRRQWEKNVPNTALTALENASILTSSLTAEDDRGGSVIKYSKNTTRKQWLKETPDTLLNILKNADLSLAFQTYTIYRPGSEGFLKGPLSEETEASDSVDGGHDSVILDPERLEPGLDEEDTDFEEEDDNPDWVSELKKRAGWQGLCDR
T4 sequence (Q9BQI3 whole entry): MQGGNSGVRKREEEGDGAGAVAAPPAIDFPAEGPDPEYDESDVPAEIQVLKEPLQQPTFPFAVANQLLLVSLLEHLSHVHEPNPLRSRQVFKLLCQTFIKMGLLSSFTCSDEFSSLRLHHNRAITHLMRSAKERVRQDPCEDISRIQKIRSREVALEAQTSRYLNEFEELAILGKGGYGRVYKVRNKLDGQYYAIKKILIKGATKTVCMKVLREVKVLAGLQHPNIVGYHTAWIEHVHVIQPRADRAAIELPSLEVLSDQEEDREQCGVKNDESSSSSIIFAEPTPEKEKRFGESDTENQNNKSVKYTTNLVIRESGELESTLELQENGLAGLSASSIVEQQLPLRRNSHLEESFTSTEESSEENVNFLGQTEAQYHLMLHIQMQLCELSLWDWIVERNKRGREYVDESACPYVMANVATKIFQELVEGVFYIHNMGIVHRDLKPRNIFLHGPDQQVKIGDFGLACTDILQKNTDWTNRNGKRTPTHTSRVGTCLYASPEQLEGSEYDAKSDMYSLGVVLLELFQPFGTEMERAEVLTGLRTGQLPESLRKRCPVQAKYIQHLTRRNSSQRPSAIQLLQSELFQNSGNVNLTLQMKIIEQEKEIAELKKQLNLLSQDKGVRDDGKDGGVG
T1 sequence (O43683 whole entry): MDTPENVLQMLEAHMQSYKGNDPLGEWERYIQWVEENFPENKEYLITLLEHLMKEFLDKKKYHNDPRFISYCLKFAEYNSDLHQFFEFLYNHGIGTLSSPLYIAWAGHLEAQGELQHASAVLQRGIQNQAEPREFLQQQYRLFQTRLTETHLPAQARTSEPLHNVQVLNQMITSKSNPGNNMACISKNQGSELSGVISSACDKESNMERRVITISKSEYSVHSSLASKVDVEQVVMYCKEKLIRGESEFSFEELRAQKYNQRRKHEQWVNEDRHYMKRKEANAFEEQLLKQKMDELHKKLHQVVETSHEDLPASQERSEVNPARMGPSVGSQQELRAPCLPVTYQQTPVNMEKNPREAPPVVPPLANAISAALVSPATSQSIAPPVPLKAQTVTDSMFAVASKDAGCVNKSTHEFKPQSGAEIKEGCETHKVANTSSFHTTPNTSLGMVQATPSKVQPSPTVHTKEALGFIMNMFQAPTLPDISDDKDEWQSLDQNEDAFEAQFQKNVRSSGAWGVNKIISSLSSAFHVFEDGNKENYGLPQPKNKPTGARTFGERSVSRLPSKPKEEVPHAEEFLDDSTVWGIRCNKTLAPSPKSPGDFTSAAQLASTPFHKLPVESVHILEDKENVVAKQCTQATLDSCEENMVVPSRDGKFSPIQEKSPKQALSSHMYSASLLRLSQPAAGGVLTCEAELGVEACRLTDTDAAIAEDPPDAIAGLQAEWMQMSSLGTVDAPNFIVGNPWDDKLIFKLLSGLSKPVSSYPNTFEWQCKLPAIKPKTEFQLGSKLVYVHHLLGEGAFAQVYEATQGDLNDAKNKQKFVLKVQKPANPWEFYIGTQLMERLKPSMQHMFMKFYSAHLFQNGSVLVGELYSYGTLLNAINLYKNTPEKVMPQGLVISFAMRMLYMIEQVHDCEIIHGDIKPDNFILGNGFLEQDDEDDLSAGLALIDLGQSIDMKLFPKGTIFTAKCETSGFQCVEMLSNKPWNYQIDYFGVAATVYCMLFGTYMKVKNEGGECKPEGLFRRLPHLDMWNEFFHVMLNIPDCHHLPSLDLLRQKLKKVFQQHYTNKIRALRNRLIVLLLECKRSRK

`CN(C)CCNC(=O)c1ccc(-c2ccc(-c3ccc(Cl)cc3)n2-c2ccccc2C(F)(F)F)cc1` [Poloppin-II]: in data set [1], the “activity against the hERG ion channel” value was “inactive”. For the same compound, the “tolerability during the study” value in [2] is given as “well tolerated”. Further, the remaining binding at 5 µM in data set [3] (BUB1, Poloppin-II 5µM, hit <35%) came to 90%; in data set [4] (CSNK2A1, Poloppin-II 5µM, hit <35%), 96%; in [5] (CSNK2A2, Poloppin-II 5µM, hit <35%) it was 92%; in data set [6] (EIF2AK1, Poloppin-II 5µM, hit <35%), 98%; in data set [7] (GAK, Poloppin-II 5µM, hit <35%), 100%; in [8] (NEK3, Poloppin-II 5µM, hit <35%), 74%. In addition, the remaining binding at 5 µM in data set [9] (NEK6, Poloppin-II 5µM, hit <35%) worked out at 99%; in [10] (PLK2, Poloppin-II 5µM, hit <35%) it was 85%; in [11] (ROCK2, Poloppin-II 5µM, hit <35%) it was 100%; in data set [12] (WEE2, Poloppin-II 5µM, hit <35%) it was 92%; in data set [13] (WNK1, Poloppin-II 5µM, hit <35%), 97%.

For orientation: EC50 means the concentration needed to bring the measured effect to its halfway point. Higher therefore signals weaker potency. A word on the GI50: it is the concentration giving 50% growth inhibition. With `O=C(O)CCc1ccc(-c2ccc(Br)cc2)n1-c1ccccc1C(F)(F)F` [Poloppin], a half-maximal response in [14] (EC50) required 29.9 ± 1.12 µM. Besides, the 50% growth inhibitory concentration (GI50) entry is “retain sensitivity” in data set [15] (BI2536-Res. (Mean), 72 h) and 7.7 µM in [15] (Homo sapiens, HCT-116, 72 h). For the same compound, the remaining binding at 50 µM turned out to be 99% in [3]; 87% in data set [4]; 84% in data set [5]; 97% in [6]; 100% in data set [7]; 72% in [8]. The remaining binding at 50 µM in data set [9] was found to be 96%; in data set [10], 78%; in data set [11], 100%; in [12], 86%; in data set [13], 100%.
